Experimental data: PubChem BioAssay AID2060626 (Molecular Pharmacology Branch, DTP, NCI, 2025)
Several values for one entry are separate records, joined by “and”; a condition that tells them apart may be missing. Equal values may be shown once.

Test system: 168753-222-R-J1-PDC complex spheroid viability
Test: Anticancer human tumor 168753-222-R-J1-PDC patient-derived bladder carcinoma cell line growth inhibition [CLK]
Details: for IC50: curve of first compound; for viability, T/C: stronger effect = lower value
Description: A high-throughput screen of multi-cell type tumor spheroids was designed to identify active combinations of […] and targeted small molecules. Complex spheroids include a stromal component modeled by human endothelial cells (HUVEC) and fibroblasts modeled by human mesenchymal stem cells (MSCs). The concentration ranges selected for each drug and investigational agent were based upon clinically achievable concentrations if the clinical Cmax of the agent was known.
Compounds. The drugs and investigational agents: cirtuvivint (SM08502; NSC835563), CC-671 (NSC850746), vemurafenib (NSC761431), tapotoclax (NSC804041), sotorasib (NSC818433), adagrasib (NSC831453), MRTX-1133 (NSC836407), BAY2416964 (NSC825713), copanlisib (NSC816437), inavolisib (NSC800729), abemaciclib (NSC768073), osimertinib (NSC779217), entinostat (NSC756642), eltanexor (KPT-8602, NSC794443), venetoclax (NSC766270), ceralasertib (NSC777638), bortezomib (NSC756655), olaparib (NSC753686), talazoparib (NSC767125), alisertib (NSC759677), peposertib (NSC802822), gemcitabine (NSC613327), 5-fluorouracil (NSC19893), SN-38 (NSC673596), oxaliplatin (NSC266046), paclitaxel (NSC125973), and doxorubicin (NSC123127), were obtained from the National Cancer Institute (NCI) Developmental Therapeutics Program Chemical Repository. The FDA-approved anticancer drug set is available from the Developmental Therapeutics Program at https://dtp.cancer.gov/organization/dscb/obtaining/available plates.htm. […] The stock solutions were prepared in dimethyl sulfoxide (DMSO, Sigma-Aldrich, St. Louis, MO, cat. D2650), except for the platinum complexes which were prepared in saline (Quality Biological, Gaithersburg, MD, cat. 114-055-101), at 800-fold the tested concentration and stored at -70 degrees C prior to their use. All drugs and investigational agents were tested over a range starting from a high concentration at or near the clinical Cmax and decreasing in half-log increments. If the clinical Cmax for an agent had not been determined, the highest concentration tested was 10 microM.
Cell Culture. All cells were maintained in an incubator at 37 degrees C and 5% CO2 with 95% humidity. The PDC lines were cultured according to standard operating procedures established by the NCI PDMR. Briefly, all PDCs were thawed and cultured in Matrigel-coated flasks prepared with a working solution of 1X Ham's F-12 nutrient mix, without supplementation (Invitrogen, Waltham, MA, cat. 11765054), 100 U/mL penicillin-streptomycin (Invitrogen, cat. 15140122), and 2.5% Matrigel (Corning Inc., Corning, NY, cat. 354248) for the first three passages. The 947758-054-R-J2-PDC line was cultured in 6B/Colon 1A media, which includes advanced DMEM/F-12 (Thermo Fisher Scientific, cat. 12634028), 10 mM HEPES (Thermo Fisher Scientific, cat. 15630080), 1X GlutaMAX supplement (Thermo Fisher Scientific, cat. 35050061), 0.1 mg/mL primocin (InvivoGen, cat. ant-pm-2), 10% defined fetal bovine serum, heat inactivated (HyClone Laboratories Inc., cat. SH30070.03HI), 1.25 mM N-Acetyl-L-cysteine (Sigma-Aldrich, cat. A9165), 10 mM nicotinamide (Sigma-Aldrich, cat. N0636), 1X B-27 supplement (Thermo Fisher Scientific, cat. 17504044), 1X N-2 supplement (Thermo Fisher Scientific, cat. 17502048), and 10 microM Y-27632 dihydrochloride (Tocris Bioscience, cat. 1254). The 876862-298-R-J1-PDC was cultured in 6E media, which includes all 6B/Colon 1A media components plus 50% L-WRN conditioned media (ATCC, cat. CRL-3276), 50 ng/mL recombinant human EGF recombinant protein (hEGF; Thermo Fisher Scientific, cat. PHG0311), 10 ng/mL recombinant human fibroblast growth factor 10 (hGFG-10; PeproTech, cat. 100-26), 1 ng/mL recombinant human fibroblast growth factor 2 (hFGF-2; PeproTech, cat. 100-18B), and 1 µM prostaglandin E2 (PGE2; Tocris, cat. 2296). The 227483-062-R1-J1-PDC line was cultured in Panc media, containing all 6E components except hFGF-2, with the addition of 500 nM SB-431542 (Selleckchem, cat. S1067) and 10 nM gastrin (Tocris, cat. 3006). […]
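Further: viability measured after seven days of drug exposure.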
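Wherever viability, T/C is given: luminescence signal used as surrogate for viable cell amount; 100% = DMSO vehicle control wells.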

Question: With `NC(=O)C(=Cn1cnc(-c2cc(C(F)(F)F)cc(C(F)(F)F)c2)n1)c1cncnc1` + CNC(=O)c1ccc(Nc2nc(OC3CCCC3)c3c(-c4ccc5nc(C)oc5c4)c[nH]c3n2)c(OC)c1 as the compound, how does the IC50 (second compound 0.0316 µM) read?
Answer: > 3 µM

Question: What about the IC50 (second compound 0.1 µM) of the same compound?
Answer: 0.829 µM

Question: And the IC50 (second compound 0.316 µM)?
Answer: 0.142 µM

Question: What about the IC50 (second compound 1 µM) of the same compound?
Answer: 0.0106 µM

Question: What about the IC50 (second compound 3.16 µM) of the same compound?
Answer: < 0.00949 µM

Question: And the IC50 (second compound 10 µM)?
Answer: < 0.00949 µM

Question: And the viability, T/C (second compound 0.0316 µM, first compound 0.00949 µM)?
Answer: 103%

Question: What about the viability, T/C (second compound 0.0316 µM, first compound 0.03 µM) of the same compound?
Answer: 105%

Question: And the viability, T/C (second compound 0.0316 µM, first compound 0.0949 µM)?
Answer: 69%

Question: What about the viability, T/C (second compound 0.0316 µM, first compound 0.3 µM) of the same compound?
Answer: 83%

Question: What about the viability, T/C (second compound 0.0316 µM, first compound 0.949 µM) of the same compound?
Answer: 72.6%

Question: And the viability, T/C (second compound 0.0316 µM, first compound 3 µM)?
Answer: 48.9%

Question: What about the viability, T/C (second compound 0.1 µM, first compound 0.00949 µM) of the same compound?
Answer: 105%

Question: And the viability, T/C (second compound 0.1 µM, first compound 0.03 µM)?
Answer: 121%

Question: And the viability, T/C (second compound 0.1 µM, first compound 0.0949 µM)?
Answer: 89.9%

Question: What about the viability, T/C (second compound 0.1 µM, first compound 0.3 µM) of the same compound?
Answer: 59.7%

Question: And the viability, T/C (second compound 0.1 µM, first compound 0.949 µM)?
Answer: 58.3%

Question: And the viability, T/C (second compound 0.1 µM, first compound 3 µM)?
Answer: 21.5%

Question: And the viability, T/C (second compound 0.316 µM, first compound 0.00949 µM)?
Answer: 72.7%

Question: And the viability, T/C (second compound 0.316 µM, first compound 0.03 µM)?
Answer: 73.5%

Question: And the viability, T/C (second compound 0.316 µM, first compound 0.0949 µM)?
Answer: 61.8%

Question: And the viability, T/C (second compound 0.316 µM, first compound 0.3 µM)?
Answer: 28%

Question: What about the viability, T/C (second compound 0.316 µM, first compound 0.949 µM) of the same compound?
Answer: 23.1%

Question: What about the viability, T/C (second compound 0.316 µM, first compound 3 µM) of the same compound?
Answer: 21.4%

Question: What about the viability, T/C (second compound 1 µM, first compound 0.00949 µM) of the same compound?
Answer: 51.8%

Question: And the viability, T/C (second compound 1 µM, first compound 0.03 µM)?
Answer: 33.7%

Question: What about the viability, T/C (second compound 1 µM, first compound 0.0949 µM) of the same compound?
Answer: 14.7%

Question: What about the viability, T/C (second compound 1 µM, first compound 0.3 µM) of the same compound?
Answer: 9.95%

Question: And the viability, T/C (second compound 1 µM, first compound 0.949 µM)?
Answer: 2.29%

Question: And the viability, T/C (second compound 1 µM, first compound 3 µM)?
Answer: 11.6%

Question: And the viability, T/C (second compound 3.16 µM, first compound 0.00949 µM)?
Answer: 23.3%

Question: What about the viability, T/C (second compound 3.16 µM, first compound 0.03 µM) of the same compound?
Answer: 14.8%

Question: And the viability, T/C (second compound 3.16 µM, first compound 0.0949 µM)?
Answer: 11.7%

Question: What about the viability, T/C (second compound 3.16 µM, first compound 0.3 µM) of the same compound?
Answer: 1.87%

Question: What about the viability, T/C (second compound 3.16 µM, first compound 0.949 µM) of the same compound?
Answer: 1.14%

Question: And the viability, T/C (second compound 3.16 µM, first compound 3 µM)?
Answer: 3.62%

Question: What about the viability, T/C (second compound 10 µM, first compound 0.00949 µM) of the same compound?
Answer: 15.3%

Question: And the viability, T/C (second compound 10 µM, first compound 0.03 µM)?
Answer: 13.7%

Question: What about the viability, T/C (second compound 10 µM, first compound 0.0949 µM) of the same compound?
Answer: 8.71%

Question: And the viability, T/C (second compound 10 µM, first compound 0.3 µM)?
Answer: 1.11%

Question: And the viability, T/C (second compound 10 µM, first compound 0.949 µM)?
Answer: 2.71%

Question: And the viability, T/C (second compound 10 µM, first compound 3 µM)?
Answer: 1.28%

Question: `CCN1CCN(Cc2ccc(Nc3ncc(F)c(-c4cc(F)c5nc(C)n(C(C)C)c5c4)n3)nc2)CC1` was tested. Which viability, T/C (compound 0.00316 µM) did it give?
Answer: 97.4% and 95.4%

Question: What about the viability, T/C (compound 0.01 µM) of the same compound?
Answer: 80.3% and 94%

Question: What about the viability, T/C (compound 0.0316 µM) of the same compound?
Answer: 37.7% and 78.4%

Question: And the viability, T/C (compound 0.1 µM)?
Answer: 44.1% and 77.1%

Question: What about the viability, T/C (compound 0.316 µM) of the same compound?
Answer: 25.1% and 68.1%

Question: What about the viability, T/C (compound 1 µM) of the same compound?
Answer: 36.4% and 64.2%
